Test results taken from publication PMC3492160, “Identification of white campion (Silene latifolia) guaiacol O-methyltransferase involved in the biosynthesis of veratrole, a key volatile for pollinator attraction” (BMC Plant Biology, 2012).

Key:
SlGOMT2 = test system: T1, SlGOMT2; assay: radiometric methylation assay with […]-SAM, ethyl acetate extraction, double reciprocal plot; format: biochemical, Silene latifolia; conditions: SAM 200 μM constant; 5 mM MgCl2; Tris-HCl pH 7.5; room temperature; apparent Km
T1 construct: no tag removal described

SlGOMT1 = test system: T2, SlGOMT1; assay: as above; format: biochemical, Silene latifolia; conditions: SAM 200 μM constant; 5 mM MgCl2; Tris-HCl pH 7.5; room temperature; apparent Km
T2 construct: no tag removal described

## COc1ccccc1O [guaiacol]
SlGOMT2
  Km: 501 ± 198 µM
SlGOMT1
  Km: 9.79 ± 1.51 µM
